# Assay results as given in patent US20220281848A1, “PYRAZOLE-SUBSTITUTED PYRROLIDINONES AS HERBICIDES” (FMC Corporation, priority 2019, published 2022).
# How the values were obtained:
# Format in all cases: in vivo
# [1] = test system: corn (Zea mays, ZEAMX); test: Test A pre-emergence, corn; settings: after 13 d
# Method in brief: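 Damage rated 0–100 (100 = total) 13 d after spraying. Application was one day post-sowing at 15.625, 62.5 or 250 g/ha, formulated in 50:50 acetone/water plus 0.5% Tween 20. Pots held in glasshouse at 24/16 °C day/night, 14 h light, 65% humidity, watered twice daily.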
# [2] = test system: ivy-leaved morning glory (Ipomoea hederacea, IPOHE); test: Test A post-emergence, ivy-leaved morning glory; settings: after 13 d
# Method in brief: (§1)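 Foliar application to 8-day-old seedlings at 15.625, 62.5 or 250 g/ha; phytotoxicity scored 0–100 after 13 d.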
# [3] = test system: velvetleaf (Abutilon theophrasti, ABUTH); test: Test A post-emergence, velvetleaf; settings: after 13 d
# Method in brief: as §1
# [4] = test system: wheat; test: Test D pre-emergence, wheat seed treated with a herbicide safener; settings: 100=total damage, 0=no damage
# Protocol: A formulation containing 50 g/L of the test chemical was prepared by dissolving the active ingredient in a mixture of organic solvents and emulsifier, details of which are provided in the table. This formulation was then mixed with a small, variable amount of acetone to aid dissolution, before addition of a 0.2% v/v aqueous solution of an adjuvant, as the aqueous diluent, to form an aqueous spray solution which contains a predetermined concentration of the active ingredient.
# This aqueous spray solution was then sprayed onto plants including maize and wheat that had been seed treated with a herbicide safener, after one day's cultivation (for pre-emergence) or after about 12 days' cultivation (for post-emergence). The plants were grown from seeds sown in standard soil, placed in a glasshouse under controlled conditions (at 24/18° C. or 20/16° C., day/night; 16 h light; 65% humidity). After spray application the plants were then grown in a glasshouse under the same conditions and watered twice daily. After 15 d for post-emergence and 20 DAA for pre-emergence the test was evaluated (100=total damage to plant; 0=no damage to plant).
Structure (SMILES),damage to plant (100=total damage; 0=no damage) ZEAMX ([1]; Pre-Emergence at 15.625 g/ha),damage to plant (100=total damage; 0=no damage) ZEAMX ([1]; Pre-Emergence at 62.5 g/ha),damage to plant (100=total damage; 0=no damage) ZEAMX ([1]; Pre-Emergence at 250 g/ha),damage to plant (100=total damage; 0=no damage) IPOHE ([2]; Post-Emergence at 15.625 g/ha),damage to plant (100=total damage; 0=no damage) IPOHE ([2]; Post-Emergence at 62.5 g/ha),damage to plant (100=total damage; 0=no damage) IPOHE ([2]; Post-Emergence at 250 g/ha),damage to plant (100=total damage; 0=no damage) ABUTH ([3]; Post-Emergence at 15.625 g/ha),damage to plant (100=total damage; 0=no damage) ABUTH ([3]; Post-Emergence at 62.5 g/ha),damage to plant (100=total damage; 0=no damage) ABUTH ([3]; Post-Emergence at 250 g/ha),"damage to plant, TRZAW ([4]; rate 15, 20 DAA)","damage to plant, TRZAW ([4]; rate 30, 20 DAA)","damage to plant, TRZAW ([4]; rate 60, 20 DAA)","damage to plant, TRZAW ([4]; rate 130, 20 DAA)","damage to plant, TRZAW ([4]; rate 250, 20 DAA)","damage to plant, TRZAW ([4]; rate 500, 20 DAA)","TRZAW damage rating ([4]; Rates 15, 20 DAA)","TRZAW damage rating ([4]; Rates 30, 20 DAA)"
CN1CC(c2cc(C(F)(F)F)n(C)n2)C(C(=O)Nc2ccccc2F)C1=O (racemic) [Compound 9],50,0,20,10,0,0,0,0,0,0,0,0,0,0,0,–,–
CCn1nc([C@H]2CN(C)C(=O)[C@@H]2C(=O)Nc2cccc(F)c2F)c2ccc(F)cc21 [Compound 4],0,40,80,0,0,20,0,0,20,0,0,0,0,0,0,–,–
CN1CC(c2cc(Cl)n(C)n2)C(C(=O)Nc2ccc(F)c(F)c2F)C1=O (racemic) [Compound 31],0,10,20,20,30,40,0,0,0,–,–,0,0,0,0,0,0
CN1CC(c2cnn(C)c2C(F)(F)F)C(C(=O)Nc2cccc(F)c2F)C1=O (racemic) [Compound 25],0,0,20,10,40,40,0,0,0,0,0,0,0,0,0,–,–
